Drawing on PubChem BioAssay (NCI), this text covers TGI for 16 molecules.

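Where inhibition never reached the appropriate level, the endpoint shown equals the highest concentration tested. Otherwise, values were interpolated linearly from a five-concentration, 48-hour dose response in 96-well plates. TGI: concentration producing complete growth inhibition.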 Bounds are passed on as bounds.

Common to all, as to assay: NCI anticancer screen, dose series, 48 h
The test system of experiment [1] is SK-MEL-5 melanoma.
Experiment [2] concerns NCI-H23 lung.
For experiment [3], the system named is TK-10 renal.
Experiment [4] concerns 786-0 renal.
Experiment [5] deals with SW-620 colon.
Experiment [6] relates to OVCAR-4 ovarian.
Experiment [7] concerns MOLT-4 leukemia.
Experiment [8] relates to SNB-75 CNS.
Experiment [9] deals with COLO 205 colon.

Consider `COc1ccc(/[N+]([O-])=C/c2ccccc2OC(=S)S)cc1`, for which the TGI in experiment [1] is above 100 µM; in experiment [2], 85.5 µM; in experiment [3], above 100 µM; in [4] it was 65.5 µM; in experiment [5], above 100 µM; in experiment [6], above 100 µM. In addition, the TGI in [7], in experiment [8] and in experiment [9] was above 100 µM each time.

Regarding `CC(C)[C@H](NC(=O)OCc1ccccc1)C(=O)N[C@H](/C=C/C(=O)OC(C)(C)C)CO`, the TGI in experiment [1], in [2], in experiment [3], in experiment [4], in experiment [5] and in experiment [6] was above 100 µM in each case. Further, the TGI in experiment [7] and in experiment [9] was above 100 µM throughout.

Turning to `CSC(=NCCCN=C(NS(=O)(=O)c1ccc(Cl)cc1)SC)NS(=O)(=O)c1ccc(Cl)cc1`, the TGI in experiment [3] is above 100 µM; in experiment [4], above 100 µM; in experiment [5], above 100 µM; in [6], above 100 µM; in experiment [7] it was 33.2 µM; in experiment [8], above 100 µM. In [9], this molecule yielded a TGI of 51.6 µM.

Turning to `O=C1c2sccc2C(=O)c2c(CO)csc21`, the TGI in experiment [1] was 2.2 µM; in experiment [2], 5.95 µM; in [3] it was 23 µM; in experiment [4], 18.5 µM; in experiment [5], above 86.5 µM; in [6] it was 9.46 µM. In addition, the TGI in [7] is above 52.9 µM; in experiment [8], 15.1 µM; in [9] it was 12.2 µM.

In the case of `CNC(=O)N(C)C(=O)c1ccccc1C(=O)N(C)C(=O)NC`, the TGI in experiment [1], in [2], in experiment [3], in [4], in experiment [5] and in [6] was above 10 µM in each case. Moreover, the TGI in [7], in experiment [8] and in [9] was above 10 µM each time.

Regarding `CCOC(=O)C(NC(=O)c1cccc(Cl)c1)(N1CCN(c2cc3c(cc2F)c(=O)c(C(=O)O)cn3CC)CC1)C(F)(F)F` (stereo not given), the TGI in experiment [1] amounted to 27.2 µM; in experiment [2] it was 42 µM; in experiment [3], 56.6 µM; in experiment [4] it was 30.9 µM; in [5], 29.4 µM; in experiment [6], 53 µM. In addition, the values for the TGI in [7], in experiment [8] and in [9] were 19.3 µM, 61.2 µM and 32 µM, respectively.

Turning to `CC(=O)Oc1cc(OC(C)=O)c2c(c1C)CC[C@@H]1[C@@H]2CC[C@]2(C)[C@@H](OC(C)=O)CC[C@@H]12`, the TGI turned out to be 30.8 µM in experiment [1]; 38.8 µM in experiment [2]; 35 µM in experiment [3]; 34.8 µM in [4]; 32.9 µM in [5]; 36.1 µM in experiment [7]. This molecule gave a TGI in experiment [8] of 44 µM.

On to `COc1ccc(N=C(SSC(=Nc2ccc(OC)cc2)c2ccc([N+](=O)[O-])o2)c2ccc([N+](=O)[O-])o2)cc1`, for which the TGI in experiment [1] was 19.5 µM; in [2], 3.2 µM; in experiment [3], 7.55 µM; in [4], 4.18 µM; in experiment [6], 2.92 µM; in experiment [7], above 31.3 µM. Further, the TGI in experiment [8] is 2.9 µM.

Regarding `CCN(CC)CCCNc1nnc(C)c2[nH]c3ccccc3c12`, the TGI was 27.8 µM in experiment [1]; 38.8 µM in experiment [2]; 67.2 µM in experiment [3]; 94 µM in [4]; above 100 µM in [5]; above 100 µM in [7]. Also, the results for the TGI in experiment [8] and in experiment [9] were 38.8 µM and 13.1 µM, respectively.

For the molecule `Nn1c(=S)[nH]nc(/C=C/c2c(O)ccc3ccccc23)c1=O`, the TGI is 26.5 µM in [1]; 11 µM in experiment [2]; above 100 µM in experiment [4]; above 100 µM in experiment [5]; 25 µM in experiment [6]; 86.1 µM in [7]. Further, the TGI in experiment [9] is 27.7 µM.

In the case of `Nc1nc2c(ccc3ccccc32)[nH]1`, the TGI in experiment [1], in [2], in experiment [3], in [5], in experiment [6] and in [7] was above 10 µM in each case. Besides, the TGI in experiment [8] and in [9] was above 10 µM throughout.

With `COc1cc(O)c2c(=O)c(O)c(-c3ccc(O)c(O)c3)oc2c1`, the TGI was 58.6 µM in [1]; 63.1 µM in experiment [3]; 53.7 µM in experiment [5]; 37.6 µM in experiment [6]; above 100 µM in [7]; 32.5 µM in [9].

As for `CCCCSC1=N/C(=C\c2ccccc2O)C(Cl)=N1`, the TGI in experiment [2], in experiment [3], in experiment [4], in experiment [5], in experiment [6] and in [7] was above 100 µM each time. Also, the TGI in [8] and in [9] was above 100 µM in each case.

Consider `COc1c(-c2nc3nc(N4CCN(C)CC4)ccc3[nH]2)cc(OC)c2c1nc(CCl)n2C`, for which the TGI in experiment [2] was 47 µM; in experiment [4], above 100 µM; in [5], 64.3 µM; in [6], 44.3 µM; in experiment [7], 58.3 µM; in [8] it was 29.8 µM. For the same molecule, the TGI in experiment [9] was 31.1 µM.

Turning to `C[C@@H](c1ccccc1)N(CC#N)[C@H]1CCC[C@]1(O)/C=C/c1ccc2c(c1)OCO2`, the TGI in [1], in experiment [2], in [3], in experiment [4], in [6] and in [7] was above 25 µM in each case. The TGI in experiment [8] and in experiment [9] was above 25 µM each time.

Consider `O=C(Cn1c(-c2ccccc2)cc2ccccc21)N1CCOCC1`, for which the TGI in experiment [1], in experiment [2], in experiment [3], in experiment [4], in experiment [5] and in [6] was above 100 µM each time. The TGI in [7] and in [9] was above 100 µM each time.
